How the values were obtained:
barnyardgrass = test: Test A pre-/postemergence herbicide test; assay type: in vivo, Echinochloa crus-galli
Method in brief: (§1)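 Greenhouse injury scoring (0–100, complete control = 100) at approximately ten days follows simultaneous pre- and postemergence application. Soil received a directed spray after seeding; seedlings of 2–10 cm at the one- to two-leaf stage were sprayed to runoff.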

large crabgrass [1] = test: Test A pre-/postemergence herbicide test; assay type: in vivo, Digitaria sanguinalis
Method in brief: as §1

velvetleaf = test: Test A pre-/postemergence herbicide test; assay type: in vivo, Abutilon theophrasti
Method in brief: as §1

bermudagrass = test: Test C pre-/postemergence herbicide test; assay type: in vivo, Cynodon dactylon; settings: for Plant response rating, Bermudagrass / Plant response rating (0 = no effect, 100 = complete control), Bermudagrass: preemergence; for Plant response rating (0 = no effect, 100 = complete control), Bermudagrass: 62 g ai/ha
Method in brief: (§2)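 Pre/post spray; non-phytotoxic solvent + surfactant. Post-timing 1–4 leaves, 2–18 cm. Read-out: visual % control vs untreated, day 12–14, greenhouse.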

Surinam grass = test: Test C pre-/postemergence herbicide test; assay type: in vivo, Urochloa decumbens; settings: for Plant response rating, Surinam Grass / Plant response rating (0 = no effect, 100 = complete control), Surinam Grass: preemergence; for Plant response rating (0 = no effect, 100 = complete control), Surinam Grass: 62 g ai/ha
Method in brief: as §2

cocklebur = test: Test C pre-/postemergence herbicide test; assay type: in vivo, Xanthium strumarium; settings: for Plant response rating, Cocklebur / Plant response rating (0 = no effect, 100 = complete control), Cocklebur: preemergence; for Plant response rating (0 = no effect, 100 = complete control), Cocklebur: 62 g ai/ha
Method in brief: as §2

corn = test: Test C pre-/postemergence herbicide test; assay type: in vivo, Zea mays; settings: for Plant response rating (0 = no effect, 100 = complete control), Corn: 62 g ai/ha; for Plant response rating (0 = no effect, 100 = complete control), Corn / Plant response rating, Corn: preemergence; for Plant response rating, Corn: visual, 12 to 14 days
Method in brief: as §2

large crabgrass [2] = test: Test C pre-/postemergence herbicide test; assay type: in vivo, Digitaria sanguinalis
Method in brief: as §2

giant foxtail = test: Test C pre-/postemergence herbicide test; assay type: in vivo, Setaria faberi; settings: for Plant response rating, Foxtail, Giant / Plant response rating (0 = no effect, 100 = complete control), Foxtail, Giant: preemergence; for Plant response rating (0 = no effect, 100 = complete control), Foxtail, Giant: 62 g ai/ha
Method in brief: as §2

goosegrass = test: Test C pre-/postemergence herbicide test; assay type: in vivo, Eleusine indica; settings: for Plant response rating, Goosegrass / Plant response rating (0 = no effect, 100 = complete control), Goosegrass: preemergence; for Plant response rating (0 = no effect, 100 = complete control), Goosegrass: 62 g ai/ha
Method in brief: as §2

kochia = test: Test C pre-/postemergence herbicide test; assay type: in vivo, Kochia scoparia; settings: for Plant response rating, Kochia / Plant response rating (0 = no effect, 100 = complete control), Kochia: preemergence; for Plant response rating (0 = no effect, 100 = complete control), Kochia: 62 g ai/ha
Method in brief: as §2

[3] = tested on: common (oilseed) sunflower; test: Test C pre-/postemergence herbicide test; assay type: in vivo, Helianthus annuus; settings: for Plant response rating, Sunflower / Plant response rating (0 = no effect, 100 = complete control), Sunflower: preemergence; for Plant response rating (0 = no effect, 100 = complete control), Sunflower: 62 g ai/ha
Method in brief: as §2

[4] = Postemergence, 500 g ai/ha, 0 to 100 scale, 0 no effect, 100 complete control
[5] = Postemergence, 2000 g ai/ha, 0 to 100 scale, 0 no effect, 100 complete control
[6] = Preemergence, 500 g ai/ha, visual rating, 0 to 100 scale (0 no effect, 100 complete control)
[7] = Preemergence, 2000 g ai/ha, 0 to 100 scale, 0 no effect, 100 complete control
[8] = 125 g ai/ha, scale 0 (no effect) to 100 (complete control), visual, 12 to 14 days
[9] = 250 g ai/ha, scale 0 to 100 (0 no effect, 100 complete control), visual, 12 to 14 days
[10] = 125 g ai/ha, scale 0 (no effect) to 100 (complete control)
[11] = 250 g ai/ha, scale 0 to 100 (0 no effect, 100 complete control)
[12] = 125 g ai/ha, scale 0 (no effect) to 100 (complete control), visual, 12 to 14 days, preemergence
[13] = 250 g ai/ha, scale 0 to 100 (0 no effect, 100 complete control), visual, 12 to 14 days, preemergence
[14] = Preemergence, 2000 g ai/ha, visual rating, 0 to 100 scale (0 no effect, 100 complete control)
[15] = Preemergence, 500 g ai/ha, scale 0 to 100, 0 no effect, 100 complete control

CCCCn1nc(C(C)(C)C)cc1C(=O)Nc1cccc(C(=O)NCC)c1 [Compound 41]
Plant response rating, Barnyardgrass (barnyardgrass; [4]): 30 | Plant response rating, Barnyardgrass (barnyardgrass; [5]): 60 | Barnyardgrass plant response rating (barnyardgrass; [6]): 40 | Barnyardgrass plant response rating (barnyardgrass; [7]): 75 | Plant response rating, Crabgrass, Large (large crabgrass [1]; [4]): 20 | Plant response rating, Crabgrass, Large (large crabgrass [1]; [5]): 60 | Crabgrass, Large plant response rating (large crabgrass [1]; [6]): 40 | Crabgrass, Large plant response rating (large crabgrass [1]; [7]): 80 | Plant response rating, Velvetleaf (velvetleaf; [4]): 25 | Plant response rating, Velvetleaf (velvetleaf; [5]): 25 | Velvetleaf plant response rating (velvetleaf; [6]): 25 | Velvetleaf plant response rating (velvetleaf; [7]): 40 | Plant response rating, Bermudagrass (bermudagrass; 31 g ai/ha, scale 0 to 100): 30 | Plant response rating (0 = no effect, 100 = complete control), Bermudagrass (bermudagrass): 30 | Plant response rating, Bermudagrass (bermudagrass; [8]): 50 | Plant response rating, Bermudagrass (bermudagrass; [9]): 100 | Plant response rating, Surinam Grass (Surinam grass; 31 g ai/ha, scale 0 to 100): 10 | Plant response rating (0 = no effect, 100 = complete control), Surinam Grass (Surinam grass): 20 | Plant response rating, Surinam Grass (Surinam grass; [8]): 20 | Plant response rating, Surinam Grass (Surinam grass; [9]): 20 | Plant response rating, Cocklebur (cocklebur; 31 g ai/ha, scale 0 to 100): 0 | Plant response rating (0 = no effect, 100 = complete control), Cocklebur (cocklebur): 0 | Plant response rating, Cocklebur (cocklebur; [8]): 0 | Plant response rating, Cocklebur (cocklebur; [9]): 10 | Plant response rating (0 = no effect, 100 = complete control), Corn (corn): 0 | Plant response rating, Corn (corn; [10]): 0 | Plant response rating, Corn (corn; [11]): 0 | Plant response rating, Crabgrass, Large (large crabgrass [2]; 31 g ai/ha, preemergence, scale 0 to 100): 0 | Plant response rating (0 = no effect, 100 = complete control), Crabgrass, Large (large crabgrass [2]; 62 g ai/ha, preemergence): 90 | Plant response rating, Crabgrass, Large (large crabgrass [2]; [12]): 100 | Plant response rating, Crabgrass, Large (large crabgrass [2]; [13]): 100 | Plant response rating, Foxtail, Giant (giant foxtail; 31 g ai/ha, scale 0 to 100): 0 | Plant response rating (0 = no effect, 100 = complete control), Foxtail, Giant (giant foxtail): 20 | Plant response rating, Foxtail, Giant (giant foxtail; [8]): 20 | Plant response rating, Foxtail, Giant (giant foxtail; [9]): 30 | Plant response rating, Goosegrass (goosegrass; 31 g ai/ha, scale 0 to 100): 10 | Plant response rating (0 = no effect, 100 = complete control), Goosegrass (goosegrass): 20 | Plant response rating, Goosegrass (goosegrass; [8]): 30 | Plant response rating, Goosegrass (goosegrass; [9]): 40 | Plant response rating, Kochia (kochia; 31 g ai/ha, scale 0 to 100): 0 | Plant response rating (0 = no effect, 100 = complete control), Kochia (kochia): 20 | Plant response rating, Kochia (kochia; [8]): 20 | Plant response rating, Kochia (kochia; [9]): 30 | Plant response rating, Sunflower ([3]; 31 g ai/ha, scale 0 to 100): 0 | Plant response rating (0 = no effect, 100 = complete control), Sunflower [3]: 0 | Plant response rating, Sunflower [3, 8]: 0 | Plant response rating, Sunflower [3, 9]: 0

CCN(CC)C(=O)c1cccc(NC(=O)c2cc(C(C)(C)C)nn2CC)n1 [Compound 145]
Barnyardgrass plant response rating (barnyardgrass; [4]): 40 | Plant response rating, Barnyardgrass (barnyardgrass; [5]): 100 | Barnyardgrass plant response rating (barnyardgrass; [6]): 95 | Barnyardgrass plant response rating (barnyardgrass; [14]): 100 | Crabgrass, Large plant response rating (large crabgrass [1]; [4]): 30 | Plant response rating, Crabgrass, Large (large crabgrass [1]; [5]): 85 | Crabgrass, Large plant response rating (large crabgrass [1]; [6]): 70 | Crabgrass, Large plant response rating (large crabgrass [1]; [14]): 90 | Velvetleaf plant response rating (velvetleaf; [4]): 30 | Plant response rating, Velvetleaf (velvetleaf; [5]): 55 | Velvetleaf plant response rating (velvetleaf; [14]): 90 | Velvetleaf plant response rating (velvetleaf; preemergence, 500 g ai/ha, visual injury, 0 to 100 scale (0 no effect, 100 complete control)): 75 | Plant response rating (0 = no effect, 100 = complete control), Bermudagrass (bermudagrass): 20 | Plant response rating, Bermudagrass (bermudagrass; [8]): 60 | Plant response rating, Bermudagrass (bermudagrass; [9]): 80 | Bermudagrass plant response rating (bermudagrass; [15]): 90 | Plant response rating (0 = no effect, 100 = complete control), Surinam Grass (Surinam grass): 0 | Plant response rating, Surinam Grass (Surinam grass; [8]): 50 | Surinam Grass plant response rating (Surinam grass; [15]): 70 | Plant response rating (0 = no effect, 100 = complete control), Cocklebur (cocklebur): 0 | Plant response rating, Cocklebur (cocklebur; [8]): 0 | Plant response rating, Cocklebur (cocklebur; [9]): 0 | Cocklebur plant response rating (cocklebur; [15]): 0 | Plant response rating (0 = no effect, 100 = complete control), Corn (corn): 0 | Plant response rating, Corn (corn; [10]): 0 | Plant response rating, Corn (corn; [11]): 5 | Corn plant response rating (corn; [15]): 20 | Plant response rating, Crabgrass, Large (large crabgrass [2]; [12]): 50 | Plant response rating, Crabgrass, Large (large crabgrass [2]; [13]): 80 | Crabgrass, Large plant response rating (large crabgrass [2]; [15]): 80 | Plant response rating (0 = no effect, 100 = complete control), Foxtail, Giant (giant foxtail): 0 | Plant response rating, Foxtail, Giant (giant foxtail; [8]): 0 | Plant response rating, Foxtail, Giant (giant foxtail; [9]): 50 | Foxtail, Giant plant response rating (giant foxtail; [15]): 70 | Plant response rating (0 = no effect, 100 = complete control), Goosegrass (goosegrass): 50 | Plant response rating, Goosegrass (goosegrass; [8]): 70 | Goosegrass plant response rating (goosegrass; [15]): 80 | Plant response rating (0 = no effect, 100 = complete control), Kochia (kochia): 20 | Plant response rating, Kochia (kochia; [8]): 60 | Kochia plant response rating (kochia; [15]): 80 | Plant response rating (0 = no effect, 100 = complete control), Sunflower [3]: 0 | Plant response rating, Sunflower [3, 8]: 0 | Sunflower plant response rating [3, 15]: 30
